Data from PubChem BioAssay (NCI).
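Compound exposure: 48 hours, 5 concentrations, 96-well plates. The concentration for full growth arrest is given as TGI.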 Where a SMILES comes first, the peptide text is derived from it. The star is where a group is joined. Boc = CC(C)(C)OC(=O)*; Bn = c1ccc(C*)cc1

Assays:
Experiment in all cases: growth of human tumour cells (NCI), 48 h
786-0 renal = test system: 786-0 renal
A549 NSCLC = test system: A549 NSCLC
ACHN renal = test system: ACHN renal
BT-549 breast = test system: BT-549 breast
CAKI-1 renal = test system: CAKI-1 renal
COLO 205 colon = test system: COLO 205 colon
DU-145 prostate = test system: DU-145 prostate
EKVX NSCLC = test system: EKVX NSCLC
HCC-2998 colon = test system: HCC-2998 colon
HCT-116 colon = test system: HCT-116 colon
HCT-15 colon = test system: HCT-15 colon
HL-60(TB) leukemia = test system: HL-60(TB) leukemia
HOP-62 NSCLC = test system: HOP-62 NSCLC
HOP-92 NSCLC = test system: HOP-92 NSCLC
HS 578T breast = test system: HS 578T breast
HT29 colon = test system: HT29 colon
IGROV1 ovarian = test system: IGROV1 ovarian
K-562 leukemia = test system: K-562 leukemia
KM12 colon = test system: KM12 colon
LOX IMVI melanoma = test system: LOX IMVI melanoma
M14 melanoma = test system: M14 melanoma
MALME-3M melanoma = test system: MALME-3M melanoma
MCF7 breast = test system: MCF7 breast
MDA-MB-231 breast = test system: MDA-MB-231 breast
MDA-MB-435 = test system: MDA-MB-435
MDA-N = test system: MDA-N
MOLT-4 leukemia = test system: MOLT-4 leukemia
NCI-H226 lung = test system: NCI-H226 lung
NCI-H23 lung = test system: NCI-H23 lung
NCI-H460 lung = test system: NCI-H460 lung
NCI-H522 lung = test system: NCI-H522 lung
NCI/ADR-RES ovarian = test system: NCI/ADR-RES ovarian
OVCAR-3 ovarian = test system: OVCAR-3 ovarian
OVCAR-4 ovarian = test system: OVCAR-4 ovarian
OVCAR-5 ovarian = test system: OVCAR-5 ovarian
OVCAR-8 ovarian = test system: OVCAR-8 ovarian
PC-3 prostate = test system: PC-3 prostate
RPMI-8226 leukemia = test system: RPMI-8226 leukemia
RXF 393 renal = test system: RXF 393 renal
SF-268 CNS = test system: SF-268 CNS
SF-295 CNS = test system: SF-295 CNS
SF-539 CNS = test system: SF-539 CNS
SK-MEL-2 melanoma = test system: SK-MEL-2 melanoma
SK-MEL-28 melanoma = test system: SK-MEL-28 melanoma
SK-MEL-5 melanoma = test system: SK-MEL-5 melanoma
SK-OV-3 ovarian = test system: SK-OV-3 ovarian
SN12C renal = test system: SN12C renal
SNB-19 CNS = test system: SNB-19 CNS
SNB-75 CNS = test system: SNB-75 CNS
SR leukemia = test system: SR leukemia
SW-620 colon = test system: SW-620 colon
T-47D breast = test system: T-47D breast
TK-10 renal = test system: TK-10 renal
U251 CNS = test system: U251 CNS
UACC-257 melanoma = test system: UACC-257 melanoma
UACC-62 melanoma = test system: UACC-62 melanoma
UO-31 renal = test system: UO-31 renal
A498 renal = test system: A498 renal
CCRF-CEM leukemia = test system: CCRF-CEM leukemia

Measured: TGI

O=C(Nc1ccccc1)c1cc(S(=O)(=O)NC2=NC(c3ccccc3)c3cc(Cl)ccc3N2)c(SSc2cc(Cl)c(C(=O)Nc3ccccc3)cc2S(=O)(=O)NC2=NC(c3ccccc3)c3cc(Cl)ccc3N2)cc1Cl (stereo unspecified)
> 53.9 µM: HL-60(TB) leukemia
> 58.3 µM: MOLT-4 leukemia
> 83.6 µM: MDA-MB-231 breast
> 26.7 µM: SR leukemia
not listed: A498 renal | CCRF-CEM leukemia
> 100 µM: all other assays above

Cc1ccc(-n2cnc(C(=N)C#N)c2N)cc1
not listed: HOP-92 NSCLC | RXF 393 renal
> 100 µM: all other assays above

COC(=O)C(CC(C)C)NC(=O)C(C)NC(=O)C(Cc1ccc(OCc2ccccc2)cc1)NC(=O)C(COCc1ccccc1)NC(=O)OC(C)(C)C (stereo unspecified) (Boc-S(Bn)Y(Bn)AL-OMe; configuration not given here)
not listed: HCC-2998 colon | HCT-15 colon | MDA-MB-231 breast | SK-MEL-2 melanoma | UACC-257 melanoma | A498 renal | CCRF-CEM leukemia
> 100 µM: all other assays above
